Reference: US20190083462A1, “PREVENTION OF NSAID ENTEROPATHY WITH MICROBIOTA-DERIVED TRYPTOPHAN-METABOLITE” (THE TEXAS A&M UNIVERSITY SYSTEM, priority 2016, published 2019)
Marks after values point to notes of the source that are not given here.

What was measured:
small intestinal mucosa = test: RNA sequencing (RNA-Seq) of the distal small intestinal mucosa; type: in vivo, mice
Source text: Eight- to 10-week-old specific-pathogen-free C57BL/6J mice were purchased and allowed to acclimate for 2 weeks. Mice were fed standardized laboratory rodent diet and sterile water ad libitum. Mice were randomly divided into the following 4 groups (n=5 mice/group): 1) NSAID (indomethacin); 2) indole; 3) NSAID+indole; and, 4) untreated controls. Mice were then rehoused on the basis of treatment group assignment, with 5 animals/group-cage. To induce NSAID enteropathy, mice in group 1 were gavaged once daily with indomethacin (5 mg/kg; for 7 days; Sigma Aldrich, St. Louis, Mo.) dissolved in dimethylysulfoxide (DMSO) (Sigma Aldrich, St. Louis, Mo.) and further diluted in phosphate buffered saline (PBS). Mice in group 2 received indole by gavage (20 mg/kg; once daily for 7 days; Sigma Aldrich, St. Louis, Mo.) dissolved in sterile water warmed to 55° C. Mice in group 3 received indole co-administered with indomethacin by gavage at the dosages described above. All mice were gavaged with equal volumes (200 μL) and equal concentrations of DMSO (0.001%).
Feces were collected daily by placing individual animals in sterile plastic cups that were RNase- and DNase-free until they passed feces. The mice were immediately returned to their home cages and the feces immediately flash frozen at −80° C. […]
RNA was extracted from the mucosal scrapings using an RNeasy mini kit (QIAGEN, Redwood City, Calif.) following the manufacturer's instructions and including on-column DNase treatment. RNA quantity was determined using a Nanodrop spectrophotometer (Fisher Thermoscientific) and the quality was assessed using the Nano6000 chip on a Bioanalyzer 2100(Agilent Technologies). […] Differentially expressed genes were determined using EdgeR based on the matrix of gene counts (Robinson M D, McCarthy D J, Smyth G K. edgeR: a Bioconductor package for differential expression analysis of digital gene expression data. Bioinformatics (Oxford, England) 2010; 26:139-40). Gene lists were analyzed through use of QIAGEN's Ingenuity® Pathway Analysis (IPA, QIAGEN, Redwood City, Calif. http://www.qiagen.com/ingenuity). […]

fecal microbiota = test: Fecal microbiota 16S rRNA sequencing (ANOSIM, SIMPER); type: in vivo, mice
[1] = unweighted Unifrac distance metric, day 7

COc1ccc2c(c1)c(CC(=O)O)c(C)n2C(=O)c1ccc(Cl)cc1 [NSAID, indomethacin]
NF-κB signaling pathway activation (small intestinal mucosa; RNA-Seq pathway analysis of mucosal scrapings): activated | transcription of pro-inflammatory cytokines (IL-1α, IL-1β, TNF, IL-6) and chemokines (CXCL1, CXCL3, CXCL2, CXCL5, CCL2, CCL7) (small intestinal mucosa; small intestinal mucosal transcriptome after 7 days, vs control mice): significantly up-regulated | members of the Bacteroidales S24-7 family (fecal microbiota; SIMPER, day 7 feces): gain | mean % abundance (fecal microbiota; family Unassigned, Other, day 7 feces): 0.00317% | mean % abundance (fecal microbiota; family c_Bacilli, Other, day 7 feces): 0% | mean % abundance (fecal microbiota; family o_Actinomycetales, f_Micrococcaceae, day 7 feces): 0.00951% | mean % abundance (fecal microbiota; family o_Anaeroplasmatales, f_Anaeroplasmataceae, day 7 feces): 0.0317% | mean % abundance (fecal microbiota; family o_Bacillales, Other, day 7 feces): 0.019% | mean % abundance (fecal microbiota; family o_Bacillales, f_Bacillaceae, day 7 feces): 0.00317% | mean % abundance (fecal microbiota; family o_Bacillales, f_Staphylococcaceae, day 7 feces): 0.019% | mean % abundance (fecal microbiota; family o_Bacteroidale, f_Bacteroidaceae, day 7 feces): 0.00634% | mean % abundance (fecal microbiota; family o_Bacteroidales, f_Prevotellaceae, day 7 feces): 0.00317% | mean % abundance (fecal microbiota; family o_Bacteroidales, f_S24-7, day 7 feces): 81.2% | mean % abundance (fecal microbiota; family o_Clostridiales, Other, day 7 feces): 0.00317% | mean % abundance (fecal microbiota; family o_Clostridiales, f_ (unnamed), day 7 feces): 7.67% | mean % abundance (fecal microbiota; family o_Clostridiales, f_Clostridiaceae, day 7 feces): 1.68% | mean % abundance (fecal microbiota; family o_Clostridiales, f_Dehalobacteriaceae, day 7 feces): 0.00634% | mean % abundance (fecal microbiota; family o_Clostridiales, f_Lachnosoiraceae, day 7 feces): 1.31% | mean % abundance (fecal microbiota; family o_Clostridiales, f_Ruminococcaceae, day 7 feces): 3.53% | mean % abundance (fecal microbiota; family o_Clostridiales, f_[Mogibacteriaceae], day 7 feces): 0.00634% | mean % abundance (fecal microbiota; family o_Coriobacteriales, f_Coriobacteriaceae, day 7 feces): 0.0381% | mean % abundance (fecal microbiota; family o_Cytophagales, f_Cytophagacae, day 7 feces): 0% | mean % abundance (fecal microbiota; family o_Erysipelotrichales, f_Erysipelotrichaceae, day 7 feces): 0.136% | mean % abundance (fecal microbiota; family o_Lactobacillales, f_Aerococcaceae, day 7 feces): 0% | mean % abundance (fecal microbiota; family o_Lactobacillales, f_Enterococcaceae, day 7 feces): 0.171% | mean % abundance (fecal microbiota; family o_Lactobacillales, f_Lactobacillaceae, day 7 feces): 2.48% | mean % abundance (fecal microbiota; family o_Lactobacillales, f_Streptococcaceae, day 7 feces): 0% | mean % abundance (fecal microbiota; family o_RF 39, f_ (unnamed), day 7 feces): 1.62% | mean % abundance (fecal microbiota; family o_Turicibacterales, f_Turicibacteraceae, day 7 feces): 0.0412% | abundance of members of the phyla Firmicutes and Bacteroidetes (fecal microbiota; fecal 16S rRNA sequences, Day 0 vs Day 7): no significant difference | mean % abundance (fecal microbiota; mouse, in vivo): 0% | mean % abundance (fecal microbiota; order Unassigned, Other, day 7 feces): 0.00317% | mean % abundance (fecal microbiota; order c_Mollicutes, o_RF39, day 7 feces): 1.62% | mean % abundance (fecal microbiota; order o_Actinomycetales, day 7 feces): 0.00951% | mean % abundance (fecal microbiota; order o_Anaeroplasmatales, day 7 feces): 0.0317% | mean % abundance (fecal microbiota; order o_Bacillales, day 7 feces): 0.0412% | mean % abundance (fecal microbiota; order o_Bacteroidales, day 7 feces): 81.2% | mean % abundance (fecal microbiota; order o_Clostridiales, day 7 feces): 14.2% | mean % abundance (fecal microbiota; order o_Coriobacteriales, day 7 feces): 0.0381% | mean % abundance (fecal microbiota; order o_Cytophagales, day 7 feces): 0% | mean % abundance (fecal microbiota; order o_Erysipelotrichales, day 7 feces): 0.136% | mean % abundance (fecal microbiota; order o_Lactobacillales, day 7 feces): 2.65% | mean % abundance (fecal microbiota; order o_Turicibacterales, day 7 feces): 0.0412% | mean % abundance (fecal microbiota; order p_Firmicutes, c_Bacilli, Other, day 7 feces): 0% | mean % abundance (fecal microbiota; phylum Unassigned, Other, day 7 feces): 0.00317% | mean % abundance (fecal microbiota; phylum k_Bacteria, Other, day 7 feces): 0% | mean % abundance (fecal microbiota; phylum k_Bacteria, p_Acidobacteria, day 7 feces): 0.00317% | mean % abundance (fecal microbiota; phylum k_Bacteria, p_Actinobacteria, day 7 feces): 0.0476% | mean % abundance (fecal microbiota; phylum k_Bacteria, p_Bacteroidetes, day 7 feces): 81.2% | mean % abundance (fecal microbiota; phylum k_Bacteria, p_Cyanobacteria, day 7 feces): 0.00634% | mean % abundance (fecal microbiota; phylum k_Bacteria, p_Firmicutes, day 7 feces): 17.1% | mean % abundance (fecal microbiota; phylum k_Bacteria, p_Proteobacteria, day 7 feces): 0.00317% | mean % abundance (fecal microbiota; phylum k_Bacteria, p_Tenericutes, day 7 feces): 1.66% | mean % abundance (fecal microbiota; phylum k_Bacteria, p_Verrucomicrobia, day 7 feces): 0% | Pairwise ANOSIM R-value vs Control (fecal microbiota; [1]): 0.5487* | Pairwise ANOSIM R-value vs Indole (fecal microbiota; [1]): 0.2615 | Pairwise ANOSIM R-value vs NSAID + Indole (fecal microbiota; [1]): 0.4444
